Data published in patent US20260062432A1 (REXPHARMTECH CO., LTD, priority 2022, published 2026).
≈ marks a conversion by molar mass, not a printed value. Counter-ions that a name gives are not always drawn.

Key:
[1] = Solubility test (saturated solution, HPLC); format: physicochemical
Description: After diluting a reference solution with 50% acetonitrile, a calibration curve (range: […]) was prepared by USP compendial HPLC analysis, and the concentration of the saturated solution was obtained from a first-order function of the prepared calibration curve.

[2] = tested on: patients with mild cognitive impairment or Alzheimer's disease; conditions: cited from earlier work
[3] = Stability test under harsh conditions (60° C.±2° C.), HPLC analysis; format: physicochemical; conditions: for purity (HPLC), Day 3 / purity (HPLC), Day 7 / purity (HPLC), Day 14 / purity (HPLC), Day 21 / purity (HPLC), Initial: harsh conditions 60° C.±2° C.; for purity change: stability test for 21 days under harsh conditions
Description: A stability test of a pharmaceutical means to confirm the stability of constant quality over time under certain conditions to set the storage method and shelf life of the pharmaceutical. Therefore, an expiration date of a product is set by setting appropriate specifications and evaluating conformance to the specifications by evaluating significant changes based on a prescribed analytical method.
Specifically, a stability test was conducted under harsh conditions (60° C.±2° C.) according to the ICH guidelines, and an analysis was performed by high-performance liquid chromatography (HPLC) analysis.

[4] = tested on: mouse model of Alzheimer's disease; conditions: cited from earlier work
[5] = versus thiamine hydrochloride or thiamine nitrate; cited from earlier work
[6] = tested on: p-ERK, p-AKT, and NR2B in primary cultured hippocampal neurons; experiment: Immunoblot test: activation of neuroplastic factors in hippocampal cells; format: cell-based, SD rats (Sprague-Dawley rats); conditions: 1 or 3 μg/ml, 10 minutes, FIG. 5
Description: All cells used in the experiment were primary cultured hippocampal neurons. Hippocampal neurons were isolated from embryos of SD rats (Sprague-Dawley rats, Samtaco Korea) on gestation Day 18 and Day 19. A hippocampal nerve tissue of fetal rats was physically separated by using a dissecting microscope and then placed in HBSS (Hank's Balanced Salt Solution) supplemented with 0.25% trypsin and treated at 37° C. for 10 minutes. After washing the hippocampal nerve tissue with HBSS, single cells were isolated by carefully pipetting with a pipette. The isolated cells were cultured by filling a 60 mm cell culture dish, coated with Poly-L-lysine (0.5 mg/ml) in advance, with Neurobasal/B27 medium (0.5 mM L-glutamine, 25 μM glutamate, 25 μM 2-mercaptoethanol, 100 U/mL penicillin, 100 μg/ml streptomycin) at 5% CO2 and 37° C. The medium was exchanged on cell culture Day 4 and Day 11, and the cells were used in the experiment on culture Day 14. To confirm p-ERK, p-AKT, and NR2B in cells, the medium of primary cultured hippocampal neurons cultured for 14 days was changed to a B-27-free medium at least 1 hour before drug treatment. […] The disrupted cell solution was quantified according to a protein quantification method, and then for protein analysis (immunoblotting), the protein was subjected to electrophoresis on 8% and 10% SDS-polyacrylamide gel. The membrane was subjected to a reaction at room temperature for 1 hour by adding 5% skim milk. A primary antibody was treated with tris buffered saline at a ratio of 1:1000, subjected to a reaction at 4° C. for 24 hours, and then washed three times with TBST (25 mM Tris-Hcl, 140 mM NaCl, 0.1% Tween 20, pH 7.5). After that, a secondary antibody was subjected to a reaction with Anti-Rabbit or Anti-Mouse antibody (HRP-linked) in 3% skim milk at a ratio of 1:5000 for 1 hour. The coupled antibody complex was confirmed by using West Femto Maximum Sensitivity Substrate (Thermo), and the results are shown in FIG. 5.

Row | SMILES | Solubility ([1]; Purified water) | Solubility ([1]; pH 1.2) | Solubility ([1]; pH 4.0) | Solubility ([1]; pH 6.8) | solubility at 1 h ([1]; purified water and solutions at pH 1.2, pH 4.0 and pH 6.8, aqueous buffer, thermodynamic from solid, purified water and solutions at pH 1.2, pH 4.0 and pH 6.8, read-out: solubility (range over all media)) | rate of functional decline [2] | purity (HPLC), Day 3 [3] | purity (HPLC), Day 7 [3] | purity (HPLC), Day 14 [3] | purity (HPLC), Day 21 [3] | purity (HPLC), Initial [3] | purity change [3] | level of phosphorylated tau [4] | number of amyloid plaques [4] | spatial memory [4] | bioavailability higher than thiamine hydrochloride or thiamine nitrate [5] | level of NR2B [6] | level of phosphorylated Akt [6] | level of phosphorylated ERK [6] | solubility (in words) ([1]; purified water and all solutions at pH 1.2, pH 4.0, and pH 6.8)
1 | C/C(=C(\CCOP(=O)(O)O)SC(=O)c1ccccc1)N(C=O)Cc1cnc(C)nc1N [Comparative Example, benfotiamine] | 3000 µg/mL (≈ 6.43 mM) | 5600 µg/mL (≈ 12 mM) | 3100 µg/mL (≈ 6.65 mM) | 6600 µg/mL (≈ 14.1 mM) | 3000 to 6600 µg/mL (≈ 6.43 to 14.1 mM) | effective and safe in slowing down the rate of functional decline | 99.1 | 98.6 | 97.5 | 97.0 | 99.5 | 2.5% | reduces | reduces | improves spatial memory in a dose-dependent manner | about 3.6 times |  |  |  | 
2 | C/C(=C(\CCOP(=O)(O)O)SC(=O)c1ccccc1)N(C=O)Cc1cnc(C)nc1N [Example 1, benfotiamine choline salt] | 652100 µg/mL | 898400 µg/mL | 690200 µg/mL | 820000 µg/mL |  |  | 99.2 | 99.1 | 99.0 | 98.2 | 99.3 | 1.1% |  |  |  |  | effectively increased | effectively increased | effectively increased | very high solubility
